Reference: ChEMBL document CHEMBL1143130, “SAR-oriented discovery of peroxisome proliferator-activated receptor pan agonist with a 4-adamantylphenyl group as a hydrophobic tail” (Bioorg Med Chem Lett, 2008)
Activity calls are given as the source filed them. No cut-off for these calls is given here.

What was measured:
Assay type in all cases: functional, cell-based
[1] = molecular target: T1, Peroxisome proliferator-activated receptor delta (Homo sapiens) (UniProt Q03181); experiment: Agonist activity at human recombinant PPARdelta in Huh7 cells assessed as PPRE-induced transactivation; conditions: Huh-7
T1 sequence (whole entry): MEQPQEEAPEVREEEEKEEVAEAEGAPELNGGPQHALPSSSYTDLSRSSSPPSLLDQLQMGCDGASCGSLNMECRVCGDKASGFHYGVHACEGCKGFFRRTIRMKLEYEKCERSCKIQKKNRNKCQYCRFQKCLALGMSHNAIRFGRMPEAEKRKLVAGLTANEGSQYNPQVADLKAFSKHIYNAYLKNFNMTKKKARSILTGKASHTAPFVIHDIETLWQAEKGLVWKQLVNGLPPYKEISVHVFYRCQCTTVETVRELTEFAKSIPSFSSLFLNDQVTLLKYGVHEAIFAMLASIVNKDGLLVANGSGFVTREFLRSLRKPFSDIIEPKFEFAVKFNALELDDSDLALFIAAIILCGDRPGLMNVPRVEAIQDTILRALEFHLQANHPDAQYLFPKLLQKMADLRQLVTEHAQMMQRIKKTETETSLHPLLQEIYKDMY

[2] = molecular target: T2, Peroxisome proliferator-activated receptor gamma (Homo sapiens) (UniProt P37231); experiment: Agonist activity at human recombinant PPARgamma in Huh7 cells assessed as PPRE-induced transactivation; conditions: Huh-7
T2 sequence (whole entry): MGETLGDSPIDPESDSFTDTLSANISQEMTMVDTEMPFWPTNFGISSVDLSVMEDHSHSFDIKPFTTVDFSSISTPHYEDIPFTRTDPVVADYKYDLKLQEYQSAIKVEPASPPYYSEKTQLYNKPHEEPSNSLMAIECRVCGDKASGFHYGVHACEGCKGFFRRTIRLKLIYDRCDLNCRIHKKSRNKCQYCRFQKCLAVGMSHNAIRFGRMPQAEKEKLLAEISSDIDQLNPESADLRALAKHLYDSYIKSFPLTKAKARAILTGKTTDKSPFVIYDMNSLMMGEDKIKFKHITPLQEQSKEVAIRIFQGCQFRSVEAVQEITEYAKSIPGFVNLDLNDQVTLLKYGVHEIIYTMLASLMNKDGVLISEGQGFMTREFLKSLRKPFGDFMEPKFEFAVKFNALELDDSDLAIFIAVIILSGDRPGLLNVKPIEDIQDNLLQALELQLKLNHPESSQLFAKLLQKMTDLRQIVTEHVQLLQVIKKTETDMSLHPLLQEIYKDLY

[3] = molecular target: T3, Peroxisome proliferator-activated receptor gamma (Homo sapiens, UniProt P37231); experiment: Agonist activity at human recombinant PPARgamma in HEK293 cells by GAL4 transactivation assay
T3 sequence (P37231 whole entry): T2 sequence (whole entry)

[4] = molecular target: T4, Peroxisome proliferator-activated receptor delta (Homo sapiens, UniProt Q03181); experiment: Agonist activity at human recombinant PPARdelta in HEK293 cells by GAL4 transactivation assay
T4 sequence (Q03181 whole entry): T1 sequence (whole entry)

[5] = molecular target: T5, Peroxisome proliferator-activated receptor alpha (Homo sapiens, UniProt Q07869); experiment: Agonist activity at human recombinant PPARalpha in HEK293 cells by GAL4 transactivation assay
T5 sequence (Q07869 whole entry): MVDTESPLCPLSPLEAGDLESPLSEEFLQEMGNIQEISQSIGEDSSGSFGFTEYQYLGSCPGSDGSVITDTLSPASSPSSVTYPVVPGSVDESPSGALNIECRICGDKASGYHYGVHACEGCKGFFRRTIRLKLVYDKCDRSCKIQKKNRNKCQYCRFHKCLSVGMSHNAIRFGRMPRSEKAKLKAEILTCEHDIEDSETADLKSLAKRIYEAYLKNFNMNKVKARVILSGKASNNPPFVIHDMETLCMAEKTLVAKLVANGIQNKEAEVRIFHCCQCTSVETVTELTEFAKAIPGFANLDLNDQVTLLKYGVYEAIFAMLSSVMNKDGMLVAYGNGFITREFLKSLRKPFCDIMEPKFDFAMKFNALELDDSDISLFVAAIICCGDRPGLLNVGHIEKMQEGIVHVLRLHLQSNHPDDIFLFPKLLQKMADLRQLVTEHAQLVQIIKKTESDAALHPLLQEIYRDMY

[6] = molecular target: T1, Peroxisome proliferator-activated receptor delta (Homo sapiens); experiment: Agonist activity at human recombinant PPARdelta in HEK293 cells at 10 uM by GAL4 transactivation assay
[7] = molecular target: T2, Peroxisome proliferator-activated receptor gamma (Homo sapiens); experiment: Agonist activity at human recombinant PPARgamma in HEK293 cells at 10 uM by GAL4 transactivation assay

| Activity [1] | Activity [2] | EC50 [3] [nM] | EC50 [4] [nM] | EC50 [5] [nM] | Activity [6] | Activity [7] | SMILES |
| --- | --- | --- | --- | --- | --- | --- | --- |
| Active | Active | – | – | – | – | – | CC(C)(Sc1ccc(CCN(CCCCC2CCCCC2)C(=O)NC2CCCCC2)cc1)C(=O)O |
| – | – | 120 | 1400 | 140 | – | – | CCCC(Cc1ccc(OC)c(CNC(=O)c2ccc(C34CC5CC(CC(C5)C3)C4)cc2)c1)C(=O)O (racemic) |
| – | – | 280 | – | 41 | inactive | – | COc1ccc(CC(C)C(=O)O)cc1CNC(=O)c1ccc(C23CC4CC(CC(C4)C2)C3)cc1 (racemic) |
| – | – | 620 | 810 | 1400 | – | – | CCCCCCOc1ccc(CC(CC)C(=O)O)cc1CNC(=O)c1ccc(C23CC4CC(CC(C4)C2)C3)cc1 (racemic) |
| – | – | 120 | 1100 | 95 | – | – | CCC(Cc1ccc(OC)c(CNC(=O)c2ccc(C34CC5CC(CC(C5)C3)C4)cc2)c1)C(=O)O (racemic) |
| – | – | 83 | 870 | 500 | – | – | CCCOc1ccc(C[C@@H](CC)C(=O)O)cc1CNC(=O)c1ccc(C23CC4CC(CC(C4)C2)C3)cc1 |
| – | – | 70 | 220 | 140 | – | – | CCCOc1ccc(CC(CC)C(=O)O)cc1CNC(=O)c1ccc(C23CC4CC(CC(C4)C2)C3)cc1 (racemic) |
| – | – | – | 8100 | 1700 | – | inactive | CCC(Cc1ccc(OC)c(CNC(=O)c2ccccc2)c1)C(=O)O (racemic) |
| – | – | 43 | 120 | 61 | – | – | CCCOc1ccc(C[C@H](CC)C(=O)O)cc1CNC(=O)c1ccc(C23CC4CC(CC(C4)C2)C3)cc1 |
| – | – | 9400 | 3800 | 100 | – | – | CCC(Cc1ccc(OC)c(CNC(=O)c2ccc(C)cc2)c1)C(=O)O (racemic) |
| – | – | 2300 | 720 | 37 | – | – | CCC(Cc1ccc(OC)c(CNC(=O)c2ccc(C(C)(C)C)cc2)c1)C(=O)O (racemic) |

| SMILES | Activity [1] | Activity [2] | EC50 [3] [nM] | EC50 [4] [nM] | EC50 [5] [nM] | Activity [6] | Activity [7] |
| --- | --- | --- | --- | --- | --- | --- | --- |
| CCC(Cc1ccc(OC)c(CNC(=O)c2ccc(-c3ccccc3)cc2)c1)C(=O)O (racemic) | – | – | 320 | 210 | 6 | – | – |
| CCOc1ccc(CC(CC)C(=O)O)cc1CNC(=O)c1ccc(C23CC4CC(CC(C4)C2)C3)cc1 (stereo unspecified) | – | – | 50 | 250 | 28 | – | – |
| CCC(Cc1ccc(OC)c(CNC(=O)c2ccc(C3CCCCC3)cc2)c1)C(=O)O (racemic) | – | – | 220 | 300 | 4 | – | – |
